According to ChEMBL document CHEMBL1667745, “Synthesis and antibacterial evaluation of novel clarithromycin derivatives with C-4″ elongated arylalkyl groups against macrolide-resistant strains” (2011):
In brackets after ≈: the same amount, converted by molar mass.

What was measured:
Format in all cases: functional
[1] = test system: Streptococcus pneumoniae; experiment: Antimicrobial activity against erythromycin-resistant Streptococcus pneumoniae AB11 expressing the erm and mef gene by broth microdilution method
[2] = test system: Streptococcus pneumoniae; experiment: Antimicrobial activity against erythromycin-resistant Streptococcus pneumoniae B1 expressing the erm gene by broth microdilution method
[3] = test system: Staphylococcus aureus; experiment: Antimicrobial activity against penicillin-susceptible Staphylococcus aureus P1 by broth microdilution method
[4] = test system: Streptococcus pneumoniae; experiment: Antimicrobial activity against erythromycin-resistant Streptococcus pneumoniae A22072 expressing the mef gene by broth microdilution method
[5] = test system: Streptococcus pneumoniae; experiment: Antimicrobial activity against erythromycin-susceptible Streptococcus pneumoniae ATCC 49619 by broth microdilution method
[6] = test system: Streptococcus pyogenes; experiment: Antimicrobial activity against erythromycin-resistant Streptococcus pyogenes R2 by broth microdilution method
[7] = test system: Staphylococcus aureus; experiment: Antimicrobial activity against erythromycin-susceptible Staphylococcus aureus ATCC 25923 by broth microdilution method
[8] = test system: Streptococcus pyogenes; experiment: Antimicrobial activity against erythromycin-susceptible Streptococcus pyogenes S2 by broth microdilution method

Row | SMILES | MIC [1] [µg/mL] | MIC [2] [µg/mL] | MIC [3] [µg/mL] | MIC [4] [µg/mL] | MIC [5] [µg/mL] | MIC [6] [µg/mL] | MIC [7] [µg/mL] | MIC [8] [µg/mL]
1 | CCCNC(=O)CCCNC(=O)O[C@H]1[C@H](C)O[C@@H](O[C@H]2[C@H](C)[C@@H](O[C@@H]3O[C@H](C)C[C@H](N(C)C)[C@H]3O)[C@](C)(OC)C[C@@H](C)C(=O)[C@H](C)[C@@H](O)[C@](C)(O)[C@@H](CC)OC(=O)[C@@H]2C)C[C@@]1(C)OC | 128 (≈ 139 µM) | 128 (≈ 139 µM) | 32 (≈ 34.9 µM) | 4 (≈ 4.36 µM) | 0.03 (≈ 0.0327 µM) | 32 (≈ 34.9 µM) | 0.25 (≈ 0.272 µM) | 1 (≈ 1.09 µM)
2 | CC[C@H]1OC(=O)[C@H](C)[C@@H](O[C@H]2C[C@@](C)(OC)[C@@H](OC(=O)NCCc3ccccc3Cl)[C@H](C)O2)[C@H](C)[C@@H](O[C@@H]2O[C@H](C)C[C@H](N(C)C)[C@H]2O)[C@](C)(OC)C[C@@H](C)C(=O)[C@H](C)[C@@H](O)[C@]1(C)O | 32 (≈ 34.4 µM) | 16 (≈ 17.2 µM) | 0.25 (≈ 0.269 µM) | 0.5 (≈ 0.538 µM) | 0.06 (≈ 0.0645 µM) | 0.5 (≈ 0.538 µM) | 0.12 (≈ 0.129 µM) | 0.03 (≈ 0.0323 µM)
3 | CC[C@H]1OC(=O)[C@H](C)[C@@H](O[C@H]2C[C@@](C)(OC)[C@@H](OC(=O)NCCCCCC(=O)NCc3ccccc3)[C@H](C)O2)[C@H](C)[C@@H](O[C@@H]2O[C@H](C)C[C@H](N(C)C)[C@H]2O)[C@](C)(OC)C[C@@H](C)C(=O)[C@H](C)[C@@H](O)[C@]1(C)O | 64 (≈ 64.4 µM) | 64 (≈ 64.4 µM) | 8 (≈ 8.05 µM) | 2 (≈ 2.01 µM) | 0.03 (≈ 0.0302 µM) | 0.25 (≈ 0.251 µM) | 0.5 (≈ 0.503 µM) | 0.12 (≈ 0.121 µM)
4 | CC[C@H]1OC(=O)[C@H](C)[C@@H](O[C@H]2C[C@@](C)(OC)[C@@H](OC(=O)NCCc3ccc4c(c3)OCO4)[C@H](C)O2)[C@H](C)[C@@H](O[C@@H]2O[C@H](C)C[C@H](N(C)C)[C@H]2O)[C@](C)(OC)C[C@@H](C)C(=O)[C@H](C)[C@@H](O)[C@]1(C)O | 64 (≈ 68.1 µM) | 32 (≈ 34.1 µM) | 0.5 (≈ 0.532 µM) | 0.25 (≈ 0.266 µM) | 0.06 (≈ 0.0639 µM) | 0.5 (≈ 0.532 µM) | 0.25 (≈ 0.266 µM) | 0.5 (≈ 0.532 µM)
5 | CCCCNC(=O)O[C@H]1[C@H](C)O[C@@H](O[C@H]2[C@H](C)[C@@H](O[C@@H]3O[C@H](C)C[C@H](N(C)C)[C@H]3O)[C@](C)(OC)C[C@@H](C)C(=O)[C@H](C)[C@@H](O)[C@](C)(O)[C@@H](CC)OC(=O)[C@@H]2C)C[C@@]1(C)OC | 64 (≈ 75.6 µM) | 64 (≈ 75.6 µM) | 8 (≈ 9.44 µM) | 1 (≈ 1.18 µM) | 0.25 (≈ 0.295 µM) | 4 (≈ 4.72 µM) | 0.25 (≈ 0.295 µM) | 0.25 (≈ 0.295 µM)
6 | CC[C@H]1OC(=O)[C@H](C)[C@@H](O[C@H]2C[C@@](C)(OC)[C@@H](OC(=O)NCCCC(=O)NCc3ccc(OC)cc3)[C@H](C)O2)[C@H](C)[C@@H](O[C@@H]2O[C@H](C)C[C@H](N(C)C)[C@H]2O)[C@](C)(OC)C[C@@H](C)C(=O)[C@H](C)[C@@H](O)[C@]1(C)O | 1 (≈ 1 µM) | 0.06 (≈ 0.0602 µM) | 8 (≈ 8.03 µM) | 0.25 (≈ 0.251 µM) | 0.03 (≈ 0.0301 µM) | 0.5 (≈ 0.502 µM) | 0.12 (≈ 0.12 µM) | 0.03 (≈ 0.0301 µM)
7 | CC[C@H]1OC(=O)[C@H](C)[C@@H](O[C@H]2C[C@@](C)(OC)[C@@H](OC(=O)NCCCCCC(=O)NCCc3ccc(O)cc3)[C@H](C)O2)[C@H](C)[C@@H](O[C@@H]2O[C@H](C)C[C@H](N(C)C)[C@H]2O)[C@](C)(OC)C[C@@H](C)C(=O)[C@H](C)[C@@H](O)[C@]1(C)O | 64 (≈ 62.5 µM) | 64 (≈ 62.5 µM) | 1 (≈ 0.976 µM) | 8 (≈ 7.81 µM) | 0.06 (≈ 0.0586 µM) | 64 (≈ 62.5 µM) | 0.25 (≈ 0.244 µM) | 0.5 (≈ 0.488 µM)
8 | CC[C@H]1OC(=O)[C@H](C)[C@@H](O[C@H]2C[C@@](C)(OC)[C@@H](OC(=O)NCCCCCC(=O)NCCc3ccccc3Cl)[C@H](C)O2)[C@H](C)[C@@H](O[C@@H]2O[C@H](C)C[C@H](N(C)C)[C@H]2O)[C@](C)(OC)C[C@@H](C)C(=O)[C@H](C)[C@@H](O)[C@]1(C)O | 32 (≈ 30.7 µM) | 64 (≈ 61.4 µM) | 0.5 (≈ 0.48 µM) | 1 (≈ 0.959 µM) | 0.03 (≈ 0.0288 µM) | 64 (≈ 61.4 µM) | 0.25 (≈ 0.24 µM) | 0.06 (≈ 0.0575 µM)
9 | CC[C@H]1OC(=O)[C@H](C)[C@@H](O[C@H]2C[C@@](C)(OC)[C@@H](OC(=O)NCc3ccc(F)cc3)[C@H](C)O2)[C@H](C)[C@@H](O[C@@H]2O[C@H](C)C[C@H](N(C)C)[C@H]2O)[C@](C)(OC)C[C@@H](C)C(=O)[C@H](C)[C@@H](O)[C@]1(C)O | 8 (≈ 8.9 µM) | 4 (≈ 4.45 µM) | 2 (≈ 2.22 µM) | 0.5 (≈ 0.556 µM) | 0.06 (≈ 0.0667 µM) | 0.5 (≈ 0.556 µM) | 0.12 (≈ 0.133 µM) | 0.03 (≈ 0.0334 µM)
10 | CCCCCNC(=O)O[C@H]1[C@H](C)O[C@@H](O[C@H]2[C@H](C)[C@@H](O[C@@H]3O[C@H](C)C[C@H](N(C)C)[C@H]3O)[C@](C)(OC)C[C@@H](C)C(=O)[C@H](C)[C@@H](O)[C@](C)(O)[C@@H](CC)OC(=O)[C@@H]2C)C[C@@]1(C)OC | 128 (≈ 149 µM) | 32 (≈ 37.2 µM) | 16 (≈ 18.6 µM) | 0.25 (≈ 0.29 µM) | 0.06 (≈ 0.0697 µM) | 0.12 (≈ 0.139 µM) | 0.25 (≈ 0.29 µM) | 0.03 (≈ 0.0348 µM)
